In ChEMBL document CHEMBL1126523, “Synthesis and antiflammatory activity of some 3-heterocycle-1,2-benzisothiazoles” (1993) one finds inhibition in vivo data, which are given here for 17 compounds.

Holding throughout (format): functional
Experiment [1] relates to Rattus norvegicus. Briefly: Tested for % inhibition in carrageenan-induced rat paw adema after peroral administration of 100 mg/kg dose at 2 hours. The settings on record: route oral.
Experiment [2] relates to Rattus norvegicus. Briefly: Tested for % inhibition in carrageenan-induced rat paw adema after peroral administration of 100 mg/kg dose at 3.5 hours. To be noted: route oral. Background: Carrageenan injected into the paw causes an acute inflammation.
The test system of experiment [3] is Rattus norvegicus. Briefly: Tested for % inhibition in carrageenan-induced rat paw adema after intraperitoneal administration of 100 mg/kg dose at 3.5 hours. The settings on record: ip.
Experiment [4] has as its system Rattus norvegicus. Briefly: Tested for % inhibition in carrageenan-induced rat paw adema after intraperitoneal administration of 100 mg/kg dose at 2 hours. To be noted: ip.

Usually inhibition in vivo stands for the drop in the measured response relative to a control, in per cent.

Regarding `c1ccc(-c2nnc(-c3nsc4ccccc34)o2)cc1`, the inhibition in vivo at 100 mg/kg in the experiment with Rattus norvegicus [1] amounted to 60%; with Rattus norvegicus [2] it was 32%; in the experiment on Rattus norvegicus [3], 48%; with Rattus norvegicus [4], 60%.

As for `CCn1c(S)nnc1-c1nsc2ccccc12`, the inhibition in vivo at 100 mg/kg in the experiment with Rattus norvegicus [1] is 57%; with Rattus norvegicus [2], 32%; in the experiment on Rattus norvegicus [3], 50%; in the experiment on Rattus norvegicus [4], 64%.

As to `Cc1nnc(-c2nsc3ccccc23)o1`, the inhibition in vivo at 100 mg/kg was determined as 43% in the experiment with Rattus norvegicus [1], 21% in the experiment on Rattus norvegicus [2], 42% with Rattus norvegicus [3] and 69% with Rattus norvegicus [4].

`CCNc1nnc(-c2nsc3ccccc23)o1`: the inhibition in vivo at 100 mg/kg was found to be 53% in the experiment with Rattus norvegicus [1], 29% with Rattus norvegicus [2], 42% with Rattus norvegicus [3] and 65% with Rattus norvegicus [4].

For `Clc1ccc(Nc2nnc(-c3nsc4ccccc34)o2)cc1`, the inhibition in vivo at 100 mg/kg in the experiment with Rattus norvegicus [1] is 14%; in the experiment with Rattus norvegicus [2], 10%; with Rattus norvegicus [3], 40%; with Rattus norvegicus [4], 48%.

For `COc1ccc(-c2nnc(-c3nsc4ccccc34)o2)cc1`, the inhibition in vivo at 100 mg/kg in the experiment with Rattus norvegicus [1] worked out at 21%; in the experiment on Rattus norvegicus [2], 29%; with Rattus norvegicus [3], 33%; in the experiment on Rattus norvegicus [4] it was 45%.

On to `c1ccc(Nc2nnc(-c3nsc4ccccc34)o2)cc1`, for which the inhibition in vivo at 100 mg/kg was 56% with Rattus norvegicus [1], 27% in the experiment with Rattus norvegicus [2], 48% with Rattus norvegicus [3] and 67% with Rattus norvegicus [4].

For the compound `CNc1nnc(-c2nsc3ccccc23)o1`, the inhibition in vivo at 100 mg/kg stood at 10% with Rattus norvegicus [1], 10% in the experiment on Rattus norvegicus [2], 60% in the experiment on Rattus norvegicus [3] and 67% in the experiment with Rattus norvegicus [4].

Turning to `c1ccc(-c2nnc(-c3nsc4ccccc34)s2)cc1`, the inhibition in vivo at 100 mg/kg was determined as 10% in the experiment on Rattus norvegicus [1], 22% in the experiment on Rattus norvegicus [2], 10% in the experiment with Rattus norvegicus [3] and 21% in the experiment on Rattus norvegicus [4].

As for `Clc1ccc(-c2nnc(-c3nsc4ccccc34)o2)cc1`, the inhibition in vivo at 100 mg/kg in the experiment on Rattus norvegicus [1] was 13%; in the experiment with Rattus norvegicus [2], 24%; in the experiment with Rattus norvegicus [3] it was 33%; in the experiment with Rattus norvegicus [4], 50%.

With `COc1ccc(Nc2nnc(-c3nsc4ccccc34)o2)cc1`, the inhibition in vivo at 100 mg/kg in the experiment with Rattus norvegicus [1] worked out at 28%; in the experiment on Rattus norvegicus [2], 33%; with Rattus norvegicus [3], 50%; in the experiment on Rattus norvegicus [4] it was 59%.

Consider `c1ccc(Nc2nnc(-c3nsc4ccccc34)s2)cc1`, for which the inhibition in vivo at 100 mg/kg in the experiment with Rattus norvegicus [1] worked out at 8%; in the experiment on Rattus norvegicus [2] it was 10%; with Rattus norvegicus [3], 48%; in the experiment with Rattus norvegicus [4], 62%.

Consider `CCNc1nnc(-c2nsc3ccccc23)s1`, for which the inhibition in vivo at 100 mg/kg amounted to 34% with Rattus norvegicus [1], 25% in the experiment with Rattus norvegicus [2], 50% in the experiment on Rattus norvegicus [3] and 59% with Rattus norvegicus [4].

As for `Sc1nnc(-c2nsc3ccccc23)n1-c1ccccc1`, the inhibition in vivo at 100 mg/kg with Rattus norvegicus [1] was determined as 10%; in the experiment with Rattus norvegicus [2], 10%; in the experiment on Rattus norvegicus [3], 60%; with Rattus norvegicus [4], 81%.

On to `CCc1nnc(-c2nsc3ccccc23)s1`, for which the inhibition in vivo at 100 mg/kg was determined as 10% in the experiment on Rattus norvegicus [1], 12% in the experiment on Rattus norvegicus [2], 10% in the experiment with Rattus norvegicus [3] and 10% in the experiment on Rattus norvegicus [4].

Take `CCc1nnc(-c2nsc3ccccc23)o1`: the inhibition in vivo at 100 mg/kg in the experiment on Rattus norvegicus [1] is 10%; with Rattus norvegicus [2] it was 18%; with Rattus norvegicus [3], 10%; in the experiment with Rattus norvegicus [4], 10%.

On to `CC(C)Cc1ccc(C(C)C(=O)O)cc1` (stereo not drawn) [IBUPROFEN], for which the inhibition in vivo at 100 mg/kg in the experiment on Rattus norvegicus [1] is 62%; with Rattus norvegicus [2], 65%; with Rattus norvegicus [3] it was 74%; with Rattus norvegicus [4], 70%.
